From patent US20130295578A1, “METHODS FOR SCREENING FOR DRUG RESISTANCE IN CANCER TREATMENT” (TRUSTEES OF DARTMOUTH COLLEGE, priority 2011, published 2013)

Assays:
[1] = test system: BT474 breast cancer cells; conditions: 3D culture, trastuzumab resistance; cited from earlier work
PK-1 and PK-2 cells = assay: modified extracellular matrix-based 3D culture; assay type: cell-based, murine; conditions: kinase inhibitor present
Method: (§1) Murine pancreatic tissue from euthanized animals was mechanically minced and digested with 2 mg/ml of Collagenase Type 4 (Worthington, Lakewood, N.J.) for 1 hour at 37° C. For ex vivo primary cell culture, 10,000 cells per well of 48-well plate were immediately plated in 3% Matrigel™ as described above, except for this modification: RPMI 1640 medium was supplemented with 20% FBS, 1× penicillin/streptomycin and 25 ng/mL amphotericin B (MP Biomedicals, LLC, Solon, Ohio). For secondary cell cultures from tumor lesions of mouse models, cancer (epithelial) cells were selected by carrying out several rounds of diluted plating in RPMI 1640 medium, with a gradual decrease concentration of FBS from 20% to 5%: PK-1 and RInk-1, as previously reported (Seeley et al. 2009. Cancer Res. 69:422-430), or after subcutaneous passage in nude mice (PK-2 and RInk-2). Experiments were conducted with epithelial cells within less than 20 passages.

COLO-357 cells [2] = conditions: for EGF/TGF-β1-induced growth stimulation: 1 nM EGF + 100 pM TGF-β1, inhibitor pre-incubated or added concomitantly
Method: An equal volume of cell suspension and ice-chilled 6% Matrigel™ (BD biosciences, San Jose, Calif.) in complete medium (RPMI 1640 supplemented with 5% FBS and 1× penicillin/streptomycin) were mixed and dispensed at: 5-15×10^3 cells in 1000 μl per well of 12-well plates or 3-10×10^3 cells in 200 μl per well of 48-well plates on top of a solidified 1% noble agar layer (Difco, Sparks, Md.). Ice-chilled 3% Matrigel™ in complete medium was used to replenish medium every 4 days and/or to administer compounds.
After 4 hours of staining with 2.5 mg/ml of 3-(4,5-Dimethylthiazol-2-yl)-2,5-diphenyltetrazolium bromide (MTT; Sigma) in PBS, plates were scanned and images were stored as high resolution (1200 dpi) grayscale TIFF files. Signal intensity and density was quantified using Image-Pro Plus (Media Cybernetics, Bethesda, Md.).

PK-2 cells [3] = assay: modified extracellular matrix-based 3D culture, MTT readout; assay type: cell-based, murine; conditions: for EGF/TGF-β1-induced growth stimulation: 1 nM EGF + 100 pM TGF-β1, inhibitor pre-incubated or added concomitantly; for chemoresistance to treatment: PK-2 compared with COLO-357, at the tested concentrations
Method: as §1

PK; p53Δ/Δ cells = assay: ex vivo primary cell 3D culture of PDAC mouse model tumor cells; assay type: cell-based; conditions: p53Δ/Δ tumor-derived cells
Method: (§2) To assess tissue response to different chemotherapeutic treatments, tumor tissues were digested with collagenase to obtain single cell suspensions for accurate cell counting and equal cell seeding in replica experimental wells.
as §1

PK; p16/p19Δ/Δ cells = assay: as above; assay type: cell-based; conditions: p16/p19Δ/Δ tumor-derived cells
Method: as §2, §1

PDAC patients = conditions: cited from earlier work
[4] = test system: PK-1, PK-2 and RInk-2 cells; assay: modified extracellular matrix-based 3D culture, growth factor stimulation; assay type: cell-based, murine
Method: (§3) To determine how pancreatic cancer cells would integrate potential interactions between EGF and TGF-β1 signals, cells were treated four days after seeding in 3% Matrigel™ with TGF-β1 at a final concentration of 100 pM and/or EGF at 1 nM. […] The growth of ASPC-1, BxPC3 and T3M4 was not affected by TGFB-β1 treatment.
as §1

COLO-357 cells [5] = assay: culture on tissue culture-treated plastic plates, morphology and immunostaining; assay type: cell-based, human
Description: (§4) To further investigate the effects of extracellular matrix components on integration of growth factor signals in both human and murine pancreatic cancer cells, cellular responses were compared on conventional tissue culture-treated plastic plates and in 3% Matrigel™. […] Thus, cells loosened their tightly packed cobble-stone like arrangement, became more motile and acquired an elongated fibroblast-like shape. […] This effect was not observed in T3M4 cells, whereas the distribution of the cytoskeleton protein tubulin (control marker) was uniform across all epithelial structures. Increased vimentin expression was not observed in these cellular structures.
(§5) Cells cultured in 3% Matrigel™ were collected 4 days after treatment on a 40 μm sieve mesh using chilled PBS to loosen Matrigel™ matrix, fixed in 10% formalin for 1 hour and coated with melted 1% noble agar. Agar plugs were fixed for up to 4 hours in formalin and paraffin-embedded in fully-automated Shandon Pathcentre instrument as described previously (Sempere et al. 2010. Clin Cancer Res. 16:4246-4255). For freshly fixed cell assays, cells were seeded at 2-5×10^3 per well on 48-well plates, treated after 24 hours and collected 48 hours after treatments by rinsing with chilled PBS and fixed in 10% formalin for 30 minutes. Four μm sections of cellular structures in paraffin-embedded or freshly fixed cells were immunostained using antibody conditions and sequential tyramide signal amplification reactions as previously described (Sempere et al. 2010. Clin Cancer Res. 16:4246-4255).

COLO-357 cells [6] = assay: anchorage-independent growth in soft agar culture; assay type: cell-based, human; conditions: COLO-357, soft agar
[7] = test system: ASPC-1, BxPC3 and T3M4 cells; assay: modified extracellular matrix-based 3D culture, growth factor stimulation; assay type: cell-based, human
Method: as §3

PK-2 cells [8] = assay: culture on tissue culture-treated plastic plates, morphology and immunostaining; assay type: cell-based, murine
Description: as §4, §5

For `CC(C)(C)n1nc(-c2ccc(Cl)cc2)c2c(N)ncnc21` [PP2], which “activation of PI3K/AKT pathway and chemoresistant effects of TGF-β” value [1] is on record?
Its value is “prevented activation of PI3K/AKT pathway and disrupted chemoresistant effects of TGF-β”.

What does the source list for `C[S+]([O-])c1ccc(-c2nc(-c3ccncc3)c(-c3ccc(F)cc3)[nH]2)cc1` (centres unmarked) [SB203580]?
stimulatory growth effects of EGF/TGF-β1 (PK-1 and PK-2 cells): mild effect; EGF/TGF-β1-induced growth stimulation (COLO-357 cells [2]; COLO-357, 3D culture): mild inhibitory effect

What does the source list for `NC(=O)c1ccc(-c2nc(-c3ccc4c(c3)OCO4)c(-c3ccccn3)[nH]2)cc1` [SB431542]?
EGF/TGF-β1-induced growth stimulation (COLO-357 cells [2]; COLO-357, 3D culture): significantly decreased; EGF/TGF-β1-induced growth stimulation, late inhibitor addition (COLO-357 cells [2]; COLO-357, inhibitor added 4 days following incubation with EGF/TGF-β1): halted further growth stimulation; EGF/TGF-β1-induced growth stimulation (PK-2 cells [3]; PK-2, 3D culture): significantly decreased; EGF/TGF-β1-induced growth stimulation, late inhibitor addition (PK-2 cells [3]; PK-2, inhibitor added 4 days following incubation with EGF/TGF-β1): halted further growth stimulation

With `N#CC(=C(/N)Sc1ccccc1N)/C(C#N)=C(\N)Sc1ccccc1N` [U0126] as the compound, how does the “stimulatory growth effects of EGF/TGF-β1” value (PK-1 and PK-2 cells) read?
The value was “moderate effect”.

And the EGF/TGF-β1-induced growth stimulation (COLO-357 cells [2]; COLO-357, 3D culture)?
Its EGF/TGF-β1-induced growth stimulation is “mild inhibitory effect”.

And the “protective effects of EGF/TGF-β1 against gemcitabine and cisplatin” value (PK-2 cells [3]; PK-2, 3D culture, concomitant inhibitor treatment)?
The value was “markedly effective only in PK-2 cells”.

With `N.N.[Cl][Pt][Cl]` [cisplatin, cis-diamminedichloroplatinum] as the compound, how does the “number and size of cellular structures in 3D culture” value (PK; p53Δ/Δ cells) read?
Its value is “reduced the number and size of cellular structures”.

And the “number and size of cellular structures in 3D culture” value (PK; p16/p19Δ/Δ cells)?
The value was “reduced the number and size of cellular structures”.

What about the chemoresistance to treatment (PK-2 cells [3]) of the same compound?
Its chemoresistance to treatment is “more chemoresistant”.

For `C#Cc1cccc(Nc2ncnc3cc(OCCOC)c(OCCOC)cc23)c1` [erlotinib], which EGF/TGF-β1-induced growth stimulation (COLO-357 cells [2]; COLO-357, 3D culture) is on record?
The EGF/TGF-β1-induced growth stimulation was “significantly decreased”.

And the “additional increase in survival” value (PDAC patients; addition to gemcitabine as first-line PDAC treatment)?
The value was 12 days.

What about the EGF/TGF-β1-induced growth stimulation (PK-2 cells [3]; PK-2, 3D culture) of the same compound?
The EGF/TGF-β1-induced growth stimulation was “significantly decreased”.

What does the source list for `Nc1ccn([C@@H]2O[C@H](CO)[C@@H](O)C2(F)F)c(=O)n1` [gemcitabine]?
number and size of cellular structures in 3D culture (PK; p53Δ/Δ cells): reduced the number and size of cellular structures; number and size of cellular structures in 3D culture (PK; p16/p19Δ/Δ cells): reduced the number and size of cellular structures; cytotoxic effect (COLO-357 cells [2]; human, 4 days, 10 nM): killed most COLO-357 cells; prolongation of life (PDAC patients; PDAC): about 8 weeks; chemoresistance to treatment (PK-2 cells [3]): more chemoresistant

For “TGF-β1: transforming growth factor-β isoform 1, used at 100 pM”, which morphology ([4]; 100 pM TGF-β1) is on record?
Its morphology is “profound morphological changes”.

And the growth ([4]; growth factor treatment four days after seeding)?
The growth was “dramatically enhanced the growth”.

And the E-cadherin immunostaining (COLO-357 cells [2]; COLO-357, 3D culture)?
The E-cadherin immunostaining was “reduced membranous localization of E-cadherin”.

And the “lowest concentration at which morphological changes were observed” value (COLO-357 cells [2]; COLO-357, 3D culture)?
The value was 1 pM.

And the morphology (COLO-357 cells [2]; COLO-357, 3D culture, 100 pM TGF-β1)?
Its morphology is “profound morphological changes”.

And the “growth stimulatory effects of EGF” value (COLO-357 cells [2]; COLO-357, 3D culture, TGF-β1 added to EGF)?
Its value is “greatly enhanced”.

And the growth (COLO-357 cells [2]; COLO-357, 3D culture, growth factor treatment)?
The growth was “mild growth stimulatory effects”.

What about the “size of cellular structures under cisplatin or gemcitabine challenge” value (COLO-357 cells [2]; COLO-357, growth factor-treated, after 4 and 8 days of incubation) of the same compound?
Its value is > 5 cells.

And the E-cadherin immunostaining (PK-2 cells [3]; PK-2, 3D culture)?
The E-cadherin immunostaining was “reduced membranous localization of E-cadherin”.

What about the “lowest concentration at which morphological changes were observed” value (PK-2 cells [3]; PK-2, 3D culture) of the same compound?
Its value is 1 pM.

And the “E-cadherin and vimentin immunostaining” value (COLO-357 cells [5]; COLO-357, on plastic, after TGF-β1 treatment)?
Its value is “loss of membranous E-cadherin (epithelial marker) and upregulation of intermediate filament vimentin (mesenchymal marker)”.

And the “TGF-β1 concentration giving limited morphological changes” value (COLO-357 cells [5]; COLO-357, plastic culture)?
Its value is 20 pM.

What about the “TGF-β1 concentration giving overt morphological changes” value (COLO-357 cells [5]; COLO-357, plastic culture) of the same compound?
The value was 200 pM.

What about the “size and number of colonies” value (COLO-357 cells [6]) of the same compound?
The value was “decreased the size and number of colonies”.

What about the “growth promoting effects of EGF” value (COLO-357 cells [6]; TGF-β1 added to EGF) of the same compound?
Its value is “antagonized”.

And the growth ([7]; 100 pM TGF-β1)?
Its growth is “not affected”.

What about the “proliferative actions of EGF” value ([7]; TGF-β1 added to EGF) of the same compound?
Its value is “did not affect”.

And the “E-cadherin and vimentin immunostaining” value (PK-2 cells [8]; PK-2, on plastic, after TGF-β1 treatment)?
The value was “loss of membranous E-cadherin (epithelial marker) and upregulation of intermediate filament vimentin (mesenchymal marker)”.

And the “TGF-β1 concentration giving limited morphological changes” value (PK-2 cells [8]; PK-2, plastic culture)?
Its value is 20 pM.

And the “TGF-β1 concentration giving overt morphological changes” value (PK-2 cells [8]; PK-2, plastic culture)?
Its value is 200 pM.
